Columns and labels:
Type in all cases: in vivo
Abutilon theophrasti = assay: Post-emergence test experiment (greenhouse pot, spray at 2-3 leaf stage); details: 1000 g/ha; post-emergence spray at 2-3 leaf stage; assessed after 3 weeks; fresh weight inhibition rate
Method in brief: (§1)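 Weed seeds sown in soil-filled pots in greenhouse, sprayed at 2-3 leaf stage (2 weeks after sowing) with compound in acetone/tween-80 plus methyl oleate emulsible concentrate (1.5 L/ha) diluted in water. Fresh-weight growth inhibition scored after 3 weeks on 0-5 scale (5: >85%, 0: <5%).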

Cyperus iria = assay: as above; details: 600 g/ha
Method in brief: as §1

Digitaria sanguinalis = assay: as above; details: for Activity level (growth inhibition rate) Digitaria sanguinalis: 1000 g/ha, post-emergence spray at 2-3 leaf stage, assessed after 3 weeks, fresh weight inhibition rate
Method in brief: as §1

Echinochloa crusgalli = assay: as above; details: for Activity level (growth inhibition rate) Echinochloa crusgalli: 1000 g/ha, post-emergence spray at 2-3 leaf stage, assessed after 3 weeks, fresh weight inhibition rate
Method in brief: as §1

Echinochloa phyllopogon = assay: as above; details: 600 g/ha
Method in brief: as §1

Galium spurium = assay: as above; details: 1000 g/ha; post-emergence spray at 2-3 leaf stage; assessed after 3 weeks; fresh weight inhibition rate
Method in brief: as §1

Indica rice = assay: as above; details: 600 g/ha
Method in brief: (§2)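 Activity graded levels 0-5 by fresh-weight inhibition (level 5 above 85%, level 0 below 5%), assessed 3 weeks after treatment. Plants grown in greenhouse pots were sprayed post-emergence at 2-3 leaves using acetone/tween-80 solutions with methyl oleate synergist (1.5 L/ha).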

Japonica rice = assay: as above; details: 600 g/ha
Method in brief: as §2

Leptochloa chinensis = assay: as above; details: 600 g/ha
Method in brief: as §1

Monochoria vaginalis [1] = assay: as above; details: 1000 g/ha; post-emergence spray at 2-3 leaf stage; assessed after 3 weeks; fresh weight inhibition rate
Method in brief: as §1

Setaria viridis = assay: as above; details: 600 g/ha
Method in brief: as §1

rice (japonica rice) = assay: Transplanted rice safety evaluation in rice field soil pot; details: 1000 g/ha, 21 days after treatment
Excerpt: (§3) The activity level standard of harmful plants destruction (i. e. growth inhibition rate) is as follows: • Level 5: the growth inhibition rate is greater than 85%; • Level 4: the growth inhibition rate is equal to or greater than 60% and less than 85%; • Level 3: the growth inhibition rate is equal to or greater than 40% and less than 60%; • Level 2: the growth inhibition rate is equal to or greater than 20% and less than 40%; • Level 1: the growth inhibition rate is equal to or greater than 5% and less than 20%; • Level 0: the growth inhibition rate is less than 5%;
(§4) Transplanted rice safety evaluation and weed control effect evaluation in rice field:
In addition, the rice field soil that loaded into the 1/1,000,000 ha pot was leveled to keep water storage at 3-4 cm depth. The 3-leaf stage rice (japonica rice) was transplanted at 3 cm of transplanting depth the next day. The compound of the present invention was treated by the same way after 5 days of transplantation.
(§5) The fertility condition of Monochoria vaginalis 14 days and rice 21 days after the treatment of the compound of the invention with the naked eye.

Monochoria vaginalis [2] = assay: Weed control effect evaluation in rice field soil pot; details: paddy pot, 1000 g/ha, 14 days after treatment; resistant to pyrazosulfuron-ethyl and penoxsulam
Excerpt: as §3, §4
Rice field soil was loaded into a 1/1,000,000 ha pot. The seeds of Monochoria vaginalis were sowed and gently covered with soil, then left to stand still in greenhouse in the state of 0.5-1 cm of water storage. It was kept at 3-4 cm of water storage thereafter. The weeds were treated by dripping the WP or SC water diluents prepared according to the common preparation method of the compounds of the present invention with pipette homogeneously to achieve specified effective amount when Monochoria vaginalis reached 0.5 leaf stage.
as §5

Soybean = assay: Spray drift test, application by unmanned gyroplane, soybean field at 10 meters; details: 600 g/ha, gyroplane at 1 m, gentle breeze
Experimental: Broadleaf crops are very sensitive to hormonal herbicides, therefore crop injuries are more likely to occur in case of spray drifting. Tests were conducted in gentle breeze for the compounds of the present invention. The formulation of the compounds of the present invention was applied by DJI unmanned gyroplane with application height of 1 m and water volume of 20 kg/ha. The use rate was 600 g/ha. The active ingredient was dissolved by acetone and diluted to aqueous solution of Tween 80. There's a soybean field at 10 meters from the application area and the height of soybean plants were about 15 cm at the application time.

[3] = post-emergence comparison, 600 g/ha

Row | Compound | Activity level (growth inhibition rate) Abutilon theophrasti (Abutilon theophrasti) | Cyperus iria, activity level (comparison test) (Cyperus iria; post-emergence comparison) | Activity level (growth inhibition rate) Digitaria sanguinalis (Digitaria sanguinalis) | Digitaria sanguinalis, activity level (comparison test) (Digitaria sanguinalis; [3]) | Activity level (growth inhibition rate) Echinochloa crusgalli (Echinochloa crusgalli) | Echinochloa crusgalli, activity level (comparison test) (Echinochloa crusgalli; [3]) | Echinochloa phyllopogon, activity level (comparison test) (Echinochloa phyllopogon) | Activity level (growth inhibition rate) Galium spurium (Galium spurium) | Indica rice, activity level (comparison test) (Indica rice; post-emergence comparison) | Japonica rice, activity level (comparison test) (Japonica rice; post-emergence comparison) | Leptochloa chinensis, activity level (comparison test) (Leptochloa chinensis) | Activity level (growth inhibition rate) Monochoria Vaginalis (Monochoria vaginalis [1]) | Setaria viridis, activity level (comparison test) (Setaria viridis) | Cyperus iria, activity level (growth inhibition rate) (Cyperus iria; post-emergence, after 3 weeks, from Hunan, resistant to ALS inhibitor herbicides) | Echinochloa crusgalli, activity level (growth inhibition rate) (Echinochloa crusgalli; post-emergence, 600 g/ha, after 3 weeks, from Hunan, resistant to ALS inhibitor herbicides) | Indica rice, activity level (growth inhibition rate) (Indica rice; post-emergence, after 3 weeks) | Japonica rice, activity level (growth inhibition rate) (Japonica rice; post-emergence, after 3 weeks) | Rice, safety level (rice (japonica rice)) | Monochoria Vaginalis, activity level (Monochoria vaginalis [2]) | Soybean, injury level by spray drift (Soybean)
1 | CC(Oc1nc(F)c(Cl)c(N)c1Cl)C(=O)OCc1c(F)c(F)c(F)c(F)c1F (stereo not shown) [Compound 238] | 5 (Level 5: the growth inhibition rate is greater than 85%) | 5 (Level 5: the growth inhibition rate is greater than 85%) | 5 (Level 5: the growth inhibition rate is greater than 85%) | 5 (Level 5: the growth inhibition rate is greater than 85%) | 5 (Level 5: the growth inhibition rate is greater than 85%) | 5 (Level 5: the growth inhibition rate is greater than 85%) | 4 (Level 4: the growth inhibition rate is equal to or greater than 60% and less than 85%) | 5 (Level 5: the growth inhibition rate is greater than 85%) | 0 (Level 0: the growth inhibition rate is less than 5%) | 0 (Level 0: the growth inhibition rate is less than 5%) | 5 (Level 5: the growth inhibition rate is greater than 85%) | 5 (Level 5: the growth inhibition rate is greater than 85%) | 5 (Level 5: the growth inhibition rate is greater than 85%) | – | – | – | – | – | – | –
2 | CC(Oc1nc(F)c(Cl)c(N)c1Cl)C(=O)OCc1ccccc1 (stereo not shown) [Compound 4] | 5 (Level 5: the growth inhibition rate is greater than 85%) | – | 5 (Level 5: the growth inhibition rate is greater than 85%) | – | 5 (Level 5: the growth inhibition rate is greater than 85%) | – | – | 5 (Level 5: the growth inhibition rate is greater than 85%) | – | – | – | 5 (Level 5: the growth inhibition rate is greater than 85%) | – | 5 (Level 5: the growth inhibition rate is greater than 85%) | 5 (Level 5: the growth inhibition rate is greater than 85%) | 0 (Level 0: the growth inhibition rate is less than 5%) | 0 (Level 0: the growth inhibition rate is less than 5%) | 0 (Level 0: the growth inhibition rate is less than 5%) | 5 (Level 5: the growth inhibition rate is greater than 85%) | 0 (Level 0: the growth inhibition rate is less than 5%)

Source: US12049450B2, “Pyridyloxy-carboxylate derivative and preparation method therefor, herbicidal composition, and use” (Qingdao Kingagroot Chemical Compound Co., Ltd., priority 2018, dated 2024)
